Measured values from US7763641B2, “Broadspectrum heterocyclic substituted phenyl containing sulfonamide HIV protease inhibitors” (Tibotec Pharmaceuticals Ltd., priority 2001, dated 2010).
Read-outs that look alike come from different tables or passages of the source.

Experiments:
[1] = test system: HIV-1 strain LAI; test: Cellular anti-HIV assay (MTT), wild type strain; type: cell-based; conditions: for pEC50: MT4 cells, five days, MTT, HIV-1 strain LAI, Tables 1-6; for WT (pEC50 against wild type HIV-LAI strain): Table 8
Method: The compounds of the present invention were examined for anti-viral activity in a cellular assay. […] The cellular assay was performed according to the following procedure.

[2] = test system: HIV strain A; test: Cellular anti-HIV assay, clinically isolated mutant strain A; type: cell-based; conditions: FR=EC50 (mutant strain)/EC50 (HIV-1 strain LAI)
Method: (§1) HIV- or mock-infected MT4 cells were incubated for five days in the presence of various concentrations of the inhibitor. […] Cell viability is measured by measuring the concentration of MTT, a yellow, water soluble tetrazolium dye that is converted to a purple, water insoluble formazan in the mitochondria of living cells only. Upon solubilization of the resulting formazan crystals with isopropanol, the absorbance of the solution is monitored at 540 nm. The values correlate directly to the number of living cells remaining in the culture at the completion of the five day incubation. The inhibitory activity of the compound was monitored on the virus-infected cells and was expressed as EC50 and EC90. These values represent the amount of the compound required to protect 50% and 90%, respectively, of the cells from the cytopathogenic effect of the virus. […] The selectivity index (SI) (ratio CC50/EC50) is an indication of the selectivity of the anti-HIV activity of the inhibitor. Wherever results are reported as e.g. pEC50 or pCC50 values, the result is expressed as the negative logarithm of the result expressed as EC50 or CC50 respectively.
(§2) Because of the increasing emergence of drug resistant HIV strains, the present compounds were tested for their potency against clinically isolated HIV strains harboring several mutations (Table 7 and 8).
(§3) As a measure of the broad spectrum activity of the present compounds, the fold resistance (FR), defined as FR=EC50 (mutant strain)/EC50 (HIV-1 strain LAI), was determined.

[3] = test system: HIV strain B; test: Cellular anti-HIV assay, clinically isolated mutant strain B; type: cell-based; conditions: FR=EC50 (mutant strain)/EC50 (HIV-1 strain LAI)
Method: as §1, §2, §3

[4] = test system: HIV strain C; test: Cellular anti-HIV assay, clinically isolated mutant strain C; type: cell-based; conditions: FR=EC50 (mutant strain)/EC50 (HIV-1 strain LAI)
Method: as §1, §2, §3

[5] = test system: HIV strain E; test: Cellular anti-HIV assay, clinically isolated mutant strain E; type: cell-based; conditions: FR=EC50 (mutant strain)/EC50 (HIV-1 strain LAI)
Method: as §1, §2, §3

[6] = test system: mock-infected MT4 cells; test: Toxicity on mock-infected cells (MTT)
Method: as §1, §3

[7] = pCC50 with mock transfected cells

CC(C)CN(CC(O)C(Cc1ccccc1)NC(=O)OC1COC2OCCC12)S(=O)(=O)c1ccc(-c2csc(Nc3ccncc3)n2)cc1 (stereo not drawn) [Compound 5]
pEC50 [1]: 7.6 | WT (pEC50 against wild type HIV-LAI strain) [1]: 7.6 | A (FR value towards mutant A) [2]: 22.3 | B (FR towards mutant B) [3]: 6.3 | C (FR towards mutant C) [4]: 3.0 | E (FR towards mutant E) [5]: 13.5 | Tox (pCC50) [6, 7]: 4.95

Cc1sc(N)nc1-c1ccc(S(=O)(=O)N(CC(C)C)CC(O)C(Cc2ccccc2)NC(=O)OC2COC3OCCC23)cc1 (stereo not drawn) [Compound 7]
pEC50 [1]: 7.3

Cc1cccc(C)c1OCC(=O)N[C@@H](Cc1ccccc1)[C@H](O)CN(CC(C)C)S(=O)(=O)c1ccc(-c2csc(N)n2)cc1 [Compound 8]
pEC50 [1]: 5.9

CNc1nc(-c2ccc(S(=O)(=O)N(CC(C)C)C[C@@H](O)[C@H](Cc3ccccc3)NC(=O)COc3c(C)cccc3C)cc2)cs1 [Compound 9]
pEC50 [1]: 5.9

CC(C)CN(C[C@@H](O)[C@H](Cc1ccccc1)NC(=O)OCc1cncs1)S(=O)(=O)c1ccc(-c2csc(Nc3ccncc3)n2)cc1 [Compound 10]
pEC50 [1]: 5.5

Cc1cccc(C)c1OCC(=O)N[C@@H](Cc1ccccc1)[C@H](O)CN(CC(C)C)S(=O)(=O)c1ccc(-c2csc(Nc3ccncc3)n2)cc1 [Compound 11]
pEC50 [1]: 5.4

CC(=O)Nc1nc(-c2ccc(S(=O)(=O)N(CC(C)C)C[C@@H](O)[C@H](Cc3ccccc3)NC(=O)COc3c(C)cccc3C)cc2)cs1 [Compound 12]
pEC50 [1]: 5.3

Cc1cc(Br)cc(C)c1OCC(=O)N[C@@H](Cc1ccccc1)[C@H](O)CN(CC(C)C)S(=O)(=O)c1ccc(-c2csc(N)n2)cc1 [Compound 13]
pEC50 [1]: 5.3

CCNc1nc(-c2ccc(S(=O)(=O)N(CC(C)C)C[C@@H](O)[C@H](Cc3ccccc3)NC(=O)COc3c(C)cccc3C)cc2)cs1 [Compound 15]
pEC50 [1]: 5.3

C=CCNc1nc(-c2ccc(S(=O)(=O)N(CC(C)C)C[C@@H](O)[C@H](Cc3ccccc3)NC(=O)COc3c(C)cccc3C)cc2)cs1 [Compound 16]
pEC50 [1]: 5.1

CC(=O)Nc1nc(-c2ccc(S(=O)(=O)N(CC(C)C)C[C@@H](O)[C@H](Cc3ccccc3)NC(=O)COc3c(C)cc(Br)cc3C)cc2)cs1 [Compound 17]
pEC50 [1]: 4.2

C=CCNc1nc(-c2ccc(S(=O)(=O)N(CC(C)C)C[C@@H](O)[C@H](Cc3ccccc3)NC(=O)COc3c(C)cc(Br)cc3C)cc2)cs1 [Compound 18]
pEC50 [1]: 4.4

CCNc1nc(-c2ccc(S(=O)(=O)N(CC(C)C)C[C@@H](O)[C@H](Cc3ccccc3)NC(=O)COc3c(C)cc(Br)cc3C)cc2)cs1 [Compound 19]
pEC50 [1]: 4.6

Cc1cc(Br)cc(C)c1OCC(=O)N[C@@H](Cc1ccccc1)[C@H](O)CN(CC(C)C)S(=O)(=O)c1ccc(-c2csc(Nc3ccncc3)n2)cc1 [Compound 21]
pEC50 [1]: 4.7

Cc1cccc(C)c1OCC(=O)N[C@@H](Cc1ccccc1)[C@H](O)CN(CC(C)C)S(=O)(=O)c1ccc(-c2cc[nH]n2)cc1 [Compound 24, [(1S,2R)-2-hydroxy-3-[N-(2-methylpropyl)-N-(4-pyrazol-3(5)-ylphenylsulfonyl)-amino]-1-(phenylmethyl)propyl]-(2,6-dimethylphenoxy) acetamide]
pEC50 [1]: 7.1 | WT (pEC50 against wild type HIV-LAI strain) [1]: 7.1 | A (FR value towards mutant A) [2]: 1.1 | E (FR towards mutant E) [5]: 3.1 | Tox (pCC50) [6, 7]: 4.2

Cc1cccc(C)c1OCC(=O)N[C@@H](Cc1ccccc1)[C@H](O)CN(CC(C)C)S(=O)(=O)c1ccc(-c2ccnn2C)cc1 [Compound 25]
pEC50 [1]: 5.9

Cc1cccc(C)c1OCC(=O)N[C@@H](Cc1ccccc1)[C@H](O)CN(CC(C)C)S(=O)(=O)c1ccc(-c2ccnn2C(C)(C)C)cc1 [Compound 27]
pEC50 [1]: 5.2

Cc1cccc(C)c1OCC(=O)N[C@@H](Cc1ccccc1)[C@H](O)CN(CC(C)C)S(=O)(=O)c1ccc(-c2ccnn2Cc2ccccc2)cc1 [Compound 28]
pEC50 [1]: 5.2

CCn1nccc1-c1ccc(S(=O)(=O)N(CC(C)C)C[C@@H](O)[C@H](Cc2ccccc2)NC(=O)COc2c(C)cccc2C)cc1 [Compound 29]
pEC50 [1]: 5.2

CCCn1nccc1-c1ccc(S(=O)(=O)N(CC(C)C)C[C@@H](O)[C@H](Cc2ccccc2)NC(=O)COc2c(C)cccc2C)cc1 [Compound 30]
pEC50 [1]: 5.0

Cc1nc(-c2ccc(S(=O)(=O)N(CC(C)C)CC(O)C(Cc3ccccc3)NC(=O)OC3COC4OCCC34)cc2)c[nH]1 (stereo not drawn) [Compound 31]
pEC50 [1]: 7.6

CC(C)CN(CC(O)C(Cc1ccccc1)NC(=O)OC1COC2OCCC12)S(=O)(=O)c1ccc(-c2c[nH]c(N)n2)cc1 (stereo not drawn) [Compound 34]
pEC50 [1]: 6.2

Cc1nc(-c2ccc(S(=O)(=O)N(CC(C)C)C[C@@H](O)[C@H](Cc3ccccc3)NC(=O)OCc3cncs3)cc2)co1 [Compound 36, [(1S,2R)-2-hydroxy-3-[N-[4-(2-methyloxazol-4-yl)phenylsulfonyl]-N-(2-methylpropyl)amino]-1-(phenylmethyl)propyl]carbamic acid, (thiazol-5-ylmethyl)ester]
pEC50 [1]: 6.3

CC(C)CN(CC(O)C(Cc1ccccc1)NC(=O)OC1COC2OCCC12)S(=O)(=O)c1ccc(-c2coc(N)n2)cc1 (stereo not drawn) [Compound 37]
pEC50 [1]: 8.4

CC(C)CN(CC(O)C(Cc1ccccc1)NC(=O)OC1COC2OCCC12)S(=O)(=O)c1ccc(-c2coc(COCc3ccccc3)n2)cc1 (stereo not drawn) [Compound 39]
pEC50 [1]: 8.1 | WT (pEC50 against wild type HIV-LAI strain) [1]: 8.1 | A (FR value towards mutant A) [2]: 36 | E (FR towards mutant E) [5]: 52 | Tox (pCC50) [6]: <4.0

CC(C)CN(CC(O)C(Cc1ccccc1)NC(=O)OC1COC2OCCC12)S(=O)(=O)c1ccc(-c2coc(CCC(=O)O)n2)cc1 (stereo not drawn) [Compound 41]
pEC50 [1]: 7.2

CC(C)CN(CC(O)C(Cc1ccccc1)NC(=O)OC1COC2OCCC12)S(=O)(=O)c1ccc(-c2coc(-c3ccc4c(c3)OCO4)n2)cc1 (stereo not drawn) [Compound 45]
pEC50 [1]: 7.8

CC(C)CN(CC(O)C(Cc1ccccc1)NC(=O)OC1COC2OCCC12)S(=O)(=O)c1ccc(-c2coc(-c3ccc(I)cc3)n2)cc1 (stereo not drawn) [Compound 47]
pEC50 [1]: 7.1

CC(C)Cc1nc(-c2ccc(S(=O)(=O)N(CC(C)C)CC(O)C(Cc3ccccc3)NC(=O)OC3COC4OCCC34)cc2)co1 (stereo not drawn) [Compound 49]
pEC50 [1]: 8.1 | WT (pEC50 against wild type HIV-LAI strain) [1]: 8.1 | B (FR towards mutant B) [3]: 21 | C (FR towards mutant C) [4]: 4.4 | E (FR towards mutant E) [5]: 10 | Tox (pCC50) [6]: <4.49

CC(C)CN(CC(O)C(Cc1ccccc1)NC(=O)OC1COC2OCCC12)S(=O)(=O)c1ccc(-c2cn3ccsc3n2)cc1 (stereo not drawn) [Compound 53]
pEC50 [1]: 7.6

CC(C)CN(C[C@@H](O)[C@H](Cc1ccccc1)NC(=O)O[C@H]1CO[C@H]2OCC[C@H]21)S(=O)(=O)c1ccc(-c2cnccn2)cc1 [Compound 56, [(1S,2R)-2-hydroxy-3-[N-(2-methylpropyl)-N-[4-(pyrazin-2-yl)-phenylsulfonyl]amino]-1-(phenylmethyl)propyl]carbamic acid, [(3R,3aS,6aR)-hexahydrofuro[2,3-b]furan-3-yl]ester]
pEC50 [1]: 8.1

CC(C)CN(CC(O)C(Cc1ccccc1)NC(=O)OC1COC2OCCC12)S(=O)(=O)c1ccc(-c2nc(N)nc(N)n2)cc1 (stereo not drawn) [Compound 58]
pEC50 [1]: 6.0
